This test has as its target human APJ receptor (Homo sapiens (Human), UniProt P35414). Nature of the test: Intracellular cAMP accumulation assay (APJ hcAMP, HTRF). The following applies: read-out: Human APJ cAMP EC50 Potency range. It counts as cell-based. A digest of the protocol:
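HEK293 cells stably expressing human APJ, 5,000 per well, incubated 30 min at rt with compound, […] and 2 μM forskolin. cAMP measured by HTRF against a cAMP standard curve as inhibition of forskolin-driven production. EC50 from variable-slope sigmoidal fit.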

[1] abbreviates: human APJ, intracellular cAMP accumulation.
The mark [2] stands for this setting: HEK293 cells stably expressing human APJ receptor, inhibition of forskolin-mediated cAMP production.

Data on 29 compounds can be found in US10508104B2, “6-hydroxy-5-(phenyl/heteroarylsulfonyl)pyrimidin-4(1H)-one as APJ agonists” (Bristol-Myers Squibb Company, priority 2016, dated 2019).

Like-named read-outs stand apart in the source and are kept apart here.

The EC50 is the midpoint of the concentration-response curve.

Sequence of human APJ receptor (P35414 whole entry): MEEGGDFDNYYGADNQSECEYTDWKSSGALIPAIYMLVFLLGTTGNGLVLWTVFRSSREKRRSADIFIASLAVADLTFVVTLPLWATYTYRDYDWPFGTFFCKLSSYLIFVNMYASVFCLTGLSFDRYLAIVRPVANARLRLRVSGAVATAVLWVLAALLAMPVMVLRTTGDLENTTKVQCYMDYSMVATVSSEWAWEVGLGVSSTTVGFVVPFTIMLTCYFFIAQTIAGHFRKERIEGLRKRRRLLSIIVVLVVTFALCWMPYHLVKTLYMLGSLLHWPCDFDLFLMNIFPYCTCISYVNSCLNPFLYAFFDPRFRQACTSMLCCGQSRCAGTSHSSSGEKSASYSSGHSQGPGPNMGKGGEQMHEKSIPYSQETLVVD

As to `CCCCc1nc(=O)c(S(=O)(=O)c2ccc(-c3ccc4ncccc4c3)cc2)c(O)n1-c1c(OC)cccc1OC` [Example 54, 2-butyl-1-(2,6-dimethoxyphenyl)-6-hydroxy-5-[4-(quinolin-6-yl)benzenesulfonyl]-1,4-dihydropyrimidin-4-one], the EC50 under setting [1] lay in the range of 0.01 to 10 nM. On the same count and under the same terms, under `CCCCc1nc(=O)c(S(=O)(=O)c2ccc(-c3ccc(OC(F)(F)F)cc3)cc2)c(O)n1-c1c(OC)cccc1OC` [Example 55, 2-butyl-1-(2,6-dimethoxyphenyl)-6-hydroxy-5-{4-[4-(trifluoromethoxy)phenyl]benzenesulfonyl}-1,4-dihydropyrimidin-4-one] stands 0.01 to 10 nM; under `CCCCc1nc(=O)c(S(=O)(=O)c2ccc(-c3cc(Cl)cc(Cl)c3)cc2)c(O)n1-c1c(OC)cccc1OC` [Example 56, 2-butyl-5-[4-(3,5-dichlorophenyl)benzenesulfonyl]-1-(2,6-dimethoxyphenyl)-6-hydroxy-1,4-dihydropyrimidin-4-one], 0.01 to 10 nM. For the compound `CCCCc1nc(=O)c(S(=O)(=O)c2ccc(-c3ccccc3F)cc2)c(O)n1-c1c(OC)cccc1OC` [Example 57, 2-butyl-1-(2,6-dimethoxyphenyl)-5-[4-(2-fluorophenyl)benzene-sulfonyl]-6-hydroxy-1,4-dihydropyrimidin-4-one], under setting [1], the EC50 fell in the range of 0.01 to 10 nM.

As for `CCCCc1nc(=O)c(S(=O)(=O)c2ccc(-c3ccc(F)c(F)c3)cc2)c(O)n1-c1c(OC)cccc1OC` [Example 58, 2-butyl-5-[4-(3,4-difluorophenyl)benzenesulfonyl]-1-(2,6-dimethoxyphenyl)-6-hydroxy-1,4-dihydropyrimidin-4-one], under setting [1], the concentration giving a half-maximal response (EC50) was in the range of 0.01 to 10 nM. Consider `CCCCc1nc(=O)c(S(=O)(=O)c2ccc(-c3ccc(C)c(C)c3)cc2)c(O)n1-c1c(OC)cccc1OC` [Example 59, 2-butyl-1-(2,6-dimethoxyphenyl)-5-[4-(3,4-dimethylphenyl)benzene-sulfonyl]-6-hydroxy-1,4-dihydropyrimidin-4-one], for which the EC50 under setting [1] fell in the range of 0.01 to 10 nM. On to `CCCCc1nc(=O)c(S(=O)(=O)c2ccc(-c3cccnc3C)cc2)c(O)n1-c1c(OC)cccc1OC` [Example 60, 2-butyl-1-(2,6-dimethoxyphenyl)-6-hydroxy-5-[4-(2-methylpyridin-3-yl)benzenesulfonyl]-1,4-dihydropyrimidin-4-one], for which the EC50 under setting [1] lay in the range of 0.01 to 10 nM. The same measure, in the same setting: under `CCCCc1nc(=O)c(S(=O)(=O)c2ccc(-c3ccc(Cl)nc3C)cc2)c(O)n1-c1c(OC)cccc1OC` [Example 61, 2-butyl-5-[4-(6-chloro-2-methylpyridin-3-yl)benzenesulfonyl]-1-(2,6-dimethoxyphenyl)-6-hydroxy-1,4-dihydropyrimidin-4-one] stands 0.01 to 10 nM. In the case of `CCCCc1nc(=O)c(S(=O)(=O)c2ccc(C)cc2)c(O)n1-c1c(OC)cccc1OC` [Example 62, 2-butyl-1-(2,6-dimethoxyphenyl)-6-hydroxy-5-(4-methylbenzenesulfonyl)-1,4-dihydropyrimidin-4-one], under setting [1], the EC50 was in the range of 0.01 to 10 nM. Still for that read-out and setting: under `COc1cccc(OC)c1-n1c(C2CCCC2)nc(=O)c(S(=O)(=O)c2ccc(C)cc2)c1O` [Example 63, 2-cyclopentyl-1-(2,6-dimethoxyphenyl)-6-hydroxy-5-(4-methylbenzenesulfonyl)-1,4-dihydropyrimidin-4-one] stands 0.01 to 10 nM; under `COc1cccc(OC)c1-n1c(C2CCCC2)nc(=O)c(S(=O)(=O)c2ccc(-c3ccnc(NC(=O)C4CC4)c3)cc2)c1O` [Example 64, N-[4-(4-{[2-cyclopentyl-1-(2,6-dimethoxyphenyl)-6-hydroxy-4-oxo-1,4-dihydropyrimidin-5-yl]sulfonyl}phenyl)pyri-din-2-yl]cyclopropane-carboxamide], 0.01 to 10 nM; under `CCCCc1nc(=O)c(S(=O)(=O)c2ccc(-c3ccnc(NC(=O)C4CC4)c3)cc2)c(O)n1-c1c(CC)cccc1CC` [Example 65, N-[4-(4-{[2-butyl-1-(2,6-diethylphenyl)-6-hydroxy-4-oxo-1,4-dihydropyrimidin-5-yl]sulfonyl}phenyl)pyri-din-2-yl]cyclopropane-carboxamide], 0.01 to 10 nM. The same measure, in the same setting: under `CCCCc1nc(=O)c(S(=O)(=O)c2ccc(C)cc2)c(O)n1-c1c(CC)cccc1CC` [Example 66, 2-butyl-1-(2,6-diethylphenyl)-6-hydroxy-5-(4-methylbenzenesulfonyl)-1,4-dihydropyrimidin-4-one] stands 0.01 to 10 nM; under `CCOCc1nc(=O)c(S(=O)(=O)c2ccc(C)cc2)c(O)n1-c1c(CC)cccc1CC` [Example 67, 1-(2,6-diethylphenyl)-2-(ethoxymethyl)-6-hydroxy-5-(4-methylbenzenesulfonyl)-1,4-dihydropyrimidin-4-one], 0.01 to 10 nM; under `CCCCc1nc(=O)c(S(=O)(=O)c2ccc(-c3ccc(F)cc3)c(F)c2)c(O)n1-c1c(OC)cccc1OC` [Example 68, 2-butyl-1-(2,6-dimethoxyphenyl)-5-[3-fluoro-4-(4-fluorophenyl)benzene-sulfonyl]-6-hydroxy-1,4-dihydropyrimidin-4-one], 0.01 to 10 nM.

Turning to `CCCCc1nc(=O)c(S(=O)(=O)c2ccc(-c3ccnc(F)c3C)c(F)c2)c(O)n1-c1c(OC)cccc1OC` [Example 69, 2-butyl-1-(2,6-dimethoxyphenyl)-5-[3-fluoro-4-(2-fluoro-3-methylpyridin-4-yl)benzenesulfonyl]-6-hydroxy-1,4-dihydropyrimidin-4-one], under setting [1], the EC50 is 0.01 to 10 nM.

`CCCCc1nc(=O)c(S(=O)(=O)c2ccc(-c3ccc(F)nc3)c(F)c2)c(O)n1-c1c(OC)cccc1OC` [Example 70, 2-butyl-1-(2,6-dimethoxyphenyl)-5-[3-fluoro-4-(6-fluoropyridin-3-yl)benzenesulfonyl]-6-hydroxy-1,4-dihydropyrimidin-4-one]: the EC50 under setting [1] lay within 0.01 to 10 nM.

Take `CCCCc1nc(=O)c(S(=O)(=O)c2ccc(-n3cc(Cl)ccc3=O)cc2)c(O)n1-c1c(OC)cccc1OC` [Example 71, 2-Butyl-5-((4-(5-chloro-2-oxopyridin-1 (2H)-yl)phenyl)sulfonyl)-1-(2,6-dimethoxyphenyl)-6-hydroxypyrimidin-4(1H)-one]: the EC50 under setting [2] fell in the range of 0.01 to 10 nM. Take `CCCCc1nc(=O)c(S(=O)(=O)c2ccc(-n3ccccc3=O)cc2)c(O)n1-c1c(OC)cccc1OC` [Example 72, 2-butyl-1-(2,6-dimethoxyphenyl)-6-hydroxy-5-[4-(2-oxo-1,2-dihydropyridin-1-yl)benzenesulfonyl]-1,4-dihydropyrimidin-4-one]: the EC50 under setting [1] is 0.01 to 10 nM. Same read-out and setting: under `COc1cccc(OC)c1-n1c(CCC(C)C)nc(=O)c(S(=O)(=O)c2ccc(-n3ccccc3=O)cc2)c1O` [Example 73, 1-(2,6-dimethoxyphenyl)-6-hydroxy-2-(3-methylbutyl)-5-[4-(2-oxo-1,2-dihydropyridin-1-yl)benzenesulfonyl]-1,4-dihydropyrimidin-4-one] stands 0.01 to 10 nM; under `CCCCc1nc(=O)c(S(=O)(=O)c2ccc(-n3ccc(C)cc3=O)cc2)c(O)n1-c1c(OC)cccc1OC` [Example 74, 2-butyl-1-(2,6-dimethoxyphenyl)-6-hydroxy-5-[4-(4-methyl-2-oxo-1,2-dihydropyridin-1-yl)benzenesulfonyl]-1,4-dihydropyrimidin-4-one], 0.01 to 10 nM. As for `CCCCc1nc(=O)c(S(=O)(=O)c2ccc(-n3cc(F)ccc3=O)cc2)c(O)n1-c1c(OC)cccc1OC` [Example 75, 2-butyl-1-(2,6-dimethoxyphenyl)-5-[4-(5-fluoro-2-oxo-1,2-dihydropyridin-1-yl)benzenesulfonyl]-6-hydroxy-1,4-dihydropyrimidin-4-one], under setting [1], the concentration for a half-maximal effect (EC50) lay in the range of 0.01 to 10 nM.

Regarding `CCCCc1nc(=O)c(S(=O)(=O)c2ccc(-n3cc(C)ccc3=O)cc2)c(O)n1-c1c(OC)cccc1OC` [Example 76, 2-butyl-1-(2,6-dimethoxyphenyl)-6-hydroxy-5-[4-(5-methyl-2-oxo-1,2-dihydropyridin-1-yl)benzenesulfonyl]-1,4-dihydropyrimidin-4-one], under setting [1], the EC50 was 0.01 to 10 nM. For `CCCCc1nc(=O)c(S(=O)(=O)c2ccc(-n3cc(Cl)ccc3=O)cc2)c(O)n1-c1c(CC)cccc1CC` [Example 77, 2-butyl-5-[4-(5-chloro-2-oxo-1,2-dihydropyridin-1-yl)benzenesulfonyl]-1-(2,6-diethylphenyl)-6-hydroxy-1,4-dihydropyrimidin-4-one], the 50% effective concentration (EC50) under setting [1] fell in the range of 0.01 to 10 nM. In the case of `CCCCc1nc(=O)c(S(=O)(=O)c2ccc(-n3cc(C)ccc3=O)cc2)c(O)n1-c1c(CC)cccc1CC` [Example 78, 2-butyl-1-(2,6-diethylphenyl)-6-hydroxy-5-[4-(5-methyl-2-oxo-1,2-dihydropyridin-1-yl)benzenesulfonyl]-1,4-dihydropyrimidin-4-one], the EC50 under setting [1] lay within 0.01 to 10 nM.

Turning to `CCCCc1nc(=O)c(S(=O)(=O)c2ccc(-c3nccn3C)cc2)c(O)n1-c1c(OC)cccc1OC` [Example 79, 2-Butyl-1-(2,6-dimethoxyphenyl)-6-hydroxy-5-((4-(1-methyl-1H-imidazol-2-yl)phenyl)sulfonyl)pyrimidin-4(1H)-one], under setting [2], the EC50 was 0.01 to 10 nM. As for `CCCCc1nc(=O)c(S(=O)(=O)c2ccc(-c3ncn(C)n3)cc2)c(O)n1-c1c(OC)cccc1OC` [Example 80, 2-butyl-1-(2,6-dimethoxyphenyl)-6-hydroxy-5-[4-(1-methyl-1H-1,2,4-triazol-3-yl)benzenesulfonyl]-1,4-dihydropyrimidin-4-one], the 50% effective concentration (EC50) under setting [1] lay within 0.01 to 10 nM. Consider `CCCCc1nc(=O)c(S(=O)(=O)c2ccc(-c3cccs3)cc2)c(O)n1-c1c(OC)cccc1OC` [Example 81, 2-butyl-1-(2,6-dimethoxyphenyl)-6-hydroxy-5-[4-(thiophen-2-yl)benzenesulfonyl]-1,4-dihydropyrimidin-4-one], for which the EC50 under setting [1] fell in the range of 0.01 to 10 nM. With `CCCCc1nc(=O)c(S(=O)(=O)c2ccc(-c3c(C)nnn3C)cc2)c(O)n1-c1c(OC)cccc1OC` [Example 82, 2-butyl-1-(2,6-dimethoxyphenyl)-5-[4-(dimethyl-1H-1,2,3-triazol-5-yl)benzenesulfonyl]-6-hydroxy-1,4-dihydropyrimidin-4-one], the EC50 under setting [1] was in the range of 0.01 to 10 nM.
